The results in this text go back to ChEMBL document CHEMBL1201862, “PubChem BioAssay data set” (2004).

Some test systems named below: NCI-H460; TK-10; CCRF-CEM; HT-29; MOLT-4; DU-145; NCI/ADR-RES; HCT-15; OVCAR-4; BT-549; UO-31; OVCAR-8; SNB-19; 786-0; EKVX; IGROV-1; CAKI-1; SF-539; Hs-578T.
What all share (experiment): NCI tumour cell line growth inhibition, 48 h

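In this assay, cells in 96-well plates receive the compound at five concentrations for 48 hours. Endpoints are linearly interpolated between the surrounding concentrations. GI50 is the concentration that inhibits growth by half.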 Activity calls are given as the source filed them. No stated cut-off is given here; in the data, active = GI50 up to about 1.1 µM and inactive = higher.

Consider `N#Cc1c(N2CCN(c3ccc([N+](=O)[O-])cc3)CC2)[n+]([O-])c2ccccc2[n+]1[O-]`, for which the GI50 in the test with NCI-H460 was > 100 µM (inactive); with TK-10 it was > 100 µM (inactive); with CCRF-CEM, 4.94 µM (inactive); in the test with HT-29, > 100 µM (inactive); with MOLT-4 it was 1.93 µM (inactive); with DU-145 it was > 100 µM (inactive). Besides, the GI50 in the test with NCI/ADR-RES is 79.4 µM (inactive); in the test on HCT-15 it was more than 100 µM; in the test with OVCAR-4, > 100 µM (inactive); in the test on BT-549, > 100 µM (inactive); in the test on UO-31, 0.0155 µM (active); in the test on OVCAR-8, 20.5 µM (inactive). Moreover, the GI50 with SNB-19 was > 100 µM (inactive); in the test on 786-0, > 100 µM (inactive); with EKVX, > 100 µM (inactive); with IGROV-1, 17.4 µM (inactive); with CAKI-1 it was > 100 µM (inactive); in the test on SF-539 it was 38.3 µM (inactive).
Consider `c1ccc2cc(CNCCOCCOCCNCc3ccc4ccccc4c3)ccc2c1`, for which the GI50 in the test with NCI-H460 is 1.64 µM (inactive); in the test with TK-10 it was 1.62 µM (inactive); with CCRF-CEM, 1.97 µM (inactive); in the test with HT-29, 1.31 µM (inactive); with MOLT-4, 1.92 µM (inactive); in the test on DU-145, 1.78 µM (inactive). Also, the GI50 is 1.94 µM with HCT-15; 2.47 µM (inactive) in the test on OVCAR-4; 1.78 µM (inactive) in the test with BT-549; 1.77 µM (inactive) with OVCAR-8; 2.31 µM (inactive) in the test with SNB-19; 1.57 µM (inactive) in the test on 786-0. Also, the GI50 was 2.54 µM (inactive) with EKVX; 1.7 µM (inactive) in the test on IGROV-1; 1.57 µM (inactive) in the test on Hs-578T; 1.81 µM (inactive) in the test on CAKI-1; 1.85 µM (inactive) in the test with SF-539.
For `CCOC(=O)c1c(SCCN2CCOCC2)n(-c2ccccc2)c(=S)n(-c2ccccc2)c1=O`, the GI50 is > 100 µM (inactive) in the test on NCI-H460; > 100 µM (inactive) with TK-10; 30.1 µM (inactive) with CCRF-CEM; 19.5 µM (inactive) in the test with HT-29; 26.7 µM (inactive) in the test with MOLT-4; > 10 µM (inactive) with DU-145. For the same molecule, the GI50 is 20 µM in the test with HCT-15; > 100 µM (inactive) with OVCAR-4; 39.3 µM (inactive) in the test on BT-549; > 100 µM (inactive) with UO-31; > 100 µM (inactive) in the test with OVCAR-8; > 100 µM (inactive) in the test on SNB-19. Further, the figures for the GI50 with 786-0, with IGROV-1 and in the test with Hs-578T were 21.2 µM (inactive), 42.5 µM (inactive) and 37.8 µM (inactive), respectively.
Take `Cc1nc2c(=S)[nH]ncc2[nH]1`: the GI50 is > 100 µM (inactive) in the test with TK-10; > 100 µM (inactive) with CCRF-CEM; > 100 µM (inactive) in the test with HT-29; > 10 µM (inactive) in the test with MOLT-4; > 100 µM (inactive) in the test on NCI/ADR-RES; more than 100 µM in the test on HCT-15. The GI50 with OVCAR-4, in the test with BT-549, with UO-31, in the test on OVCAR-8, with SNB-19 and in the test with 786-0 was > 100 µM (inactive) throughout. The GI50 in the test with EKVX, in the test with IGROV-1, in the test on CAKI-1 and in the test with SF-539 was > 100 µM (inactive) each time.
For the molecule `O=C1C=C2CC[C@H]3[C@@H]4CC[C@H](OC(=O)c5cccc6cc7ccccc7nc56)[C@H]4CC[C@@H]3[C@H]2CC1`, the GI50 is > 100 µM (inactive) with TK-10; 24.7 µM (inactive) in the test with CCRF-CEM; > 100 µM (inactive) with HT-29; 54.3 µM (inactive) in the test on MOLT-4; > 100 µM (inactive) in the test with DU-145; > 100 µM (inactive) in the test on NCI/ADR-RES. Also, the GI50 in the test on HCT-15 is more than 100 µM; in the test on OVCAR-4 it was > 100 µM (inactive); in the test on BT-549 it was > 100 µM (inactive); in the test on UO-31, 79.6 µM (inactive); in the test with OVCAR-8 it was > 100 µM (inactive); in the test with SNB-19, > 100 µM (inactive). The GI50 in the test on 786-0 was > 100 µM (inactive); in the test on EKVX, 63.1 µM (inactive); with IGROV-1, > 100 µM (inactive); in the test on Hs-578T it was > 100 µM (inactive); with SF-539, > 100 µM (inactive).
With `COC(=O)C1=C(O)C(C(=O)OC)[C@]2(O)[C@H](C(=O)OC)[C@H]1C[C@@H](c1ccc(OC)cc1)[C@H]2C(=O)OC` (some centres undefined), the GI50 with NCI-H460 is 17.7 µM (inactive); with TK-10, 34.3 µM (inactive); in the test on HT-29 it was 29.8 µM (inactive); in the test with MOLT-4 it was 10.2 µM (inactive); in the test on NCI/ADR-RES, 23.8 µM (inactive); in the test with HCT-15, 21.9 µM. The GI50 was 19.8 µM (inactive) in the test with OVCAR-4; 30.8 µM (inactive) in the test with BT-549; 11.3 µM (inactive) with UO-31; 30.7 µM (inactive) in the test with OVCAR-8; 29.4 µM (inactive) in the test with SNB-19; 20.2 µM (inactive) in the test with 786-0. The GI50 is 26.3 µM (inactive) in the test on EKVX; 34.6 µM (inactive) in the test with IGROV-1; 19.9 µM (inactive) with Hs-578T; 19.5 µM (inactive) in the test on CAKI-1; 28.3 µM (inactive) with SF-539.
For `CC(C)(C)OC(=O)C1/C(=C/CBr)CN1C(=O)OC(C)(C)C` (centres undefined), the GI50 in the test on NCI-H460 was 16.7 µM (inactive); with TK-10, 16.9 µM (inactive); in the test on CCRF-CEM it was 2.64 µM (inactive); in the test with HT-29, 23.7 µM (inactive); in the test on MOLT-4 it was 6.56 µM (inactive); with NCI/ADR-RES it was 22.8 µM (inactive). The GI50 with HCT-15 was 8.67 µM; in the test with OVCAR-4 it was 2.86 µM (inactive); with BT-549 it was 16.7 µM (inactive); with UO-31 it was 18.8 µM (inactive); with OVCAR-8, 16.9 µM (inactive); in the test with SNB-19 it was 17.6 µM (inactive). The GI50 in the test on 786-0 is 11.2 µM (inactive); with EKVX, 18 µM (inactive); in the test with IGROV-1 it was 5.5 µM (inactive); in the test with Hs-578T it was 22 µM (inactive); with CAKI-1, 16.5 µM (inactive); with SF-539 it was 18.5 µM (inactive).
Regarding `CC(C)(C)NC(=O)/C(=C\Sc1ccccc1)c1ccc2c(c1)OCO2`, the GI50 is 44.8 µM (inactive) with TK-10; 28.5 µM (inactive) in the test on CCRF-CEM; 17.9 µM (inactive) in the test on HT-29; 21.9 µM (inactive) with MOLT-4; 37.2 µM (inactive) in the test on DU-145; 24.2 µM (inactive) in the test on NCI/ADR-RES. The GI50 with HCT-15 was 30.8 µM; in the test on OVCAR-4, 51.3 µM (inactive); in the test with BT-549 it was 75.9 µM (inactive); in the test on UO-31, 26.9 µM (inactive); in the test with OVCAR-8 it was 32 µM (inactive); in the test on SNB-19, 38.7 µM (inactive). Also, the GI50 in the test with 786-0 was 31.9 µM (inactive); in the test on EKVX, 28.4 µM (inactive); with IGROV-1, 29.2 µM (inactive); in the test on CAKI-1 it was 38.4 µM (inactive); in the test with SF-539, 35.3 µM (inactive).
As for `CC1CCCC2=C1C(c1ccc(Cl)cc1)n1c(s/c(=C\c3ccc(Cl)cc3)c1=O)=N2` (centres undefined), the GI50 in the test with TK-10 is > 100 µM (inactive); in the test with CCRF-CEM it was > 100 µM (inactive); in the test with HT-29, > 100 µM (inactive); with DU-145, > 100 µM (inactive); with HCT-15, more than 100 µM; in the test with BT-549, 22.1 µM (inactive). For the same molecule, the GI50 in the test on UO-31, in the test on OVCAR-8, in the test on SNB-19, in the test on 786-0, in the test with EKVX and in the test on IGROV-1 was > 100 µM (inactive) in each case. Moreover, the GI50 with Hs-578T and in the test with CAKI-1 was > 100 µM (inactive) throughout.
On to `Cn1nc(-c2ccccc2)c2c(-c3ccccc3)c3cc(Cl)ccc3nc21`, for which the GI50 in the test on NCI-H460 was 75.7 µM (inactive); with TK-10, > 100 µM (inactive); in the test on CCRF-CEM, 0.0311 µM (active); in the test on HT-29 it was 49.3 µM (inactive); with MOLT-4, 15.8 µM (inactive); with DU-145, > 100 µM (inactive). Moreover, the GI50 was 12.7 µM in the test with HCT-15; > 100 µM (inactive) with OVCAR-4; > 100 µM (inactive) with BT-549; > 100 µM (inactive) in the test on UO-31; > 100 µM (inactive) with OVCAR-8; > 100 µM (inactive) with SNB-19. Also, the GI50 was > 100 µM (inactive) in the test on 786-0; > 100 µM (inactive) with EKVX; > 100 µM (inactive) in the test on IGROV-1; > 76.4 µM (inactive) in the test on Hs-578T; > 100 µM (inactive) in the test on CAKI-1.
For the molecule `N#C[BH2-][n+]1cn(C2CC(O)C(COP(=O)(O)OC3CC(n4cnc5c(=O)[nH]c(N)nc54)OC3CO)O2)c2nc(N)[nH]c(=O)c21` (centres undefined), the GI50 is > 100 µM (inactive) in the test on NCI-H460; 20.5 µM (inactive) in the test with CCRF-CEM; > 100 µM (inactive) in the test with HT-29; > 100 µM (inactive) with DU-145; > 100 µM (inactive) in the test with NCI/ADR-RES; more than 100 µM with HCT-15. For the same molecule, the GI50 in the test with OVCAR-4 was > 100 µM (inactive); in the test on BT-549, 6.25 µM (inactive); in the test with UO-31, > 100 µM (inactive); with OVCAR-8 it was > 100 µM (inactive); in the test with SNB-19, > 100 µM (inactive); with 786-0, > 100 µM (inactive). Further, the GI50 with EKVX was > 100 µM (inactive); in the test with IGROV-1, 22 µM (inactive); in the test with CAKI-1 it was > 100 µM (inactive); with SF-539, > 100 µM (inactive).
Take `CC(=O)OC12CC(C(F)(F)F)(C(F)(F)F)OC1(OC(C)=O)CC(C(F)(F)F)(C(F)(F)F)O2` (centres undefined): the GI50 in the test on NCI-H460 was 4.05 µM (inactive); with TK-10, 8.28 µM (inactive); with CCRF-CEM, 2.04 µM (inactive); in the test with HT-29 it was 5.28 µM (inactive); with MOLT-4, 1.06 µM (active); with DU-145, 4.06 µM (inactive). Moreover, the GI50 in the test with NCI/ADR-RES was 10.9 µM (inactive); with HCT-15 it was 11.5 µM; in the test with OVCAR-4 it was 4.23 µM (inactive); with BT-549 it was 5.42 µM (inactive); in the test with UO-31, 1.36 µM (inactive); with OVCAR-8 it was 2.71 µM (inactive). In addition, the GI50 in the test on SNB-19 was 3.15 µM (inactive); in the test on 786-0 it was 2.9 µM (inactive); with IGROV-1 it was 1.41 µM (inactive); with Hs-578T, 13.3 µM (inactive); with SF-539 it was 2.07 µM (inactive).
